Target: Wild type FGFR2 (Homo sapiens (Human), UniProt P21802)
Assay: FGFR2 kinase assay (fluorescence-based microfluidic mobility shift assay)
Assay type: biochemical
Conditions: wild type FGFR2 0.06 nM, 100 μM ATP, 80 minutes at room temperature; class symbols

Chain of Wild type FGFR2 (P21802 22-821): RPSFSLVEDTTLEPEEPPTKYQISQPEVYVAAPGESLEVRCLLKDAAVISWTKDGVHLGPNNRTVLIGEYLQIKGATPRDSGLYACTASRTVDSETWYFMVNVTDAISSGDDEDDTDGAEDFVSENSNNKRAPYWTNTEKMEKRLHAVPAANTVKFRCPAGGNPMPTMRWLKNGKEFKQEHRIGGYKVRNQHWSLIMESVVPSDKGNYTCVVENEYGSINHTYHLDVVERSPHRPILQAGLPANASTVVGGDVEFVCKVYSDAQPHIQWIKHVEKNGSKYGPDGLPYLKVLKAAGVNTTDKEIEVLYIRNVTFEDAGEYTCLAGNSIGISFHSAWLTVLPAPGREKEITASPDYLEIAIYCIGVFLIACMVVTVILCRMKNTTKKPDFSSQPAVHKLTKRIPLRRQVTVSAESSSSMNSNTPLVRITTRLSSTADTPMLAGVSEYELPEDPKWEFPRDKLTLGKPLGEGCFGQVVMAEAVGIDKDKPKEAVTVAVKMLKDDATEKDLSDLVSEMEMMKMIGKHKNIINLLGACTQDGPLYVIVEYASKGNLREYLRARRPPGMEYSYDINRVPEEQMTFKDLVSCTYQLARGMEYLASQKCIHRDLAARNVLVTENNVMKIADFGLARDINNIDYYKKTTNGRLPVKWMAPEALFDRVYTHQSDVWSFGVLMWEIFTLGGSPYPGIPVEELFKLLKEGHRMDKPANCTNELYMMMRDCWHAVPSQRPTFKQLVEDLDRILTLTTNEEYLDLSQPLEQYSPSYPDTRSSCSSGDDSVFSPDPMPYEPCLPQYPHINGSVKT

Row | IC50 [nM] | Compound
1 | ≤ 100 | C=CC(=O)N1C[C@@H](n2cc(C#Cc3cc(F)c4c(c3)ncn4C)c(C(N)=O)c2NC)C[C@@H]1COC [Example 121, 1-((3S,5S)-1-Acryloyl-5-(methoxymethy)pyrrolidin-3-yl)-3-((7-fluoro-1-methyl-1H-benzo[d]imidazol-5-yl)ethynyl)-5-(methylamino)-1H-pyrazole-4-carboxamide]
2 | 100 to 1000 | C=CC(=O)N1C[C@@H](n2nc(C#Cc3cn4ncnc4cc3F)c(C(N)=O)c2NC)C[C@@H]1COC [Example 122, 3-(2-[7-Fluoro-[1,2,4]triazolo[1,5-a]pyridin-6-yl]ethynyl)-1-[(3S,5R)-5-(methoxymethyl)-1-(prop-2-enoyl)pyrrolidin-3-yl]-5-(methylamino)pyrazole-4-carboxamide]
3 | ≤ 100 | C=CC(=O)N1CC[C@H](n2nc(C#Cc3c(F)cc4c(ncn4CC)c3F)c(C(N)=O)c2NCCO)C1 [Example 123, 3-[2-(1-Ethyl-4,6-difluoro-1,3-benzodiazol-5-yl)ethynyl]-5-[(2-hydroxyethyl)amino]-1-[(3S)-1-(prop-2-enoyl)pyrrolidin-3-yl]pyrazole-4-carboxamide]
4 | ≤ 100 | C=CC(=O)N1C[C@@H](n2nc(C#Cc3cc4ncn(CC)c4c(F)c3F)c(C(N)=O)c2NC)C[C@@H]1COC [Example 125, 3-[2-(1-Ethyl-6,7-difluoro-1,3-benzodiazol-5-yl)ethynyl]-1-[(3S,5R)-5-(methoxymethyl)-1-(prop-2-enoyl)pyrrolidin-3-yl]-5-(methylamino)pyrazole-4-carboxamide]
5 | ≤ 100 | C=CC(=O)N1C[C@@H](n2nc(C#Cc3cc4ncn(CC)c4c(F)c3Cl)c(C(N)=O)c2NC)C[C@@H]1COC [Example 126, 3-[2-(6-Chloro-1-ethyl-7-fluoro-1,3-benzodiazol-5-yl)ethynyl]-1-[(3S,5R)-5-(methoxymethyl)-1-(prop-2-enoyl)pyrrolidin-3-yl]-5-(methylamino)pyrazole-4-carboxamide]
6 | ≤ 100 | C=CC(=O)N1C[C@@H](n2nc(C#Cc3cc4nc(C)n(C)c4c(F)c3F)c(C(N)=O)c2NC)C[C@@H]1COC [Example 127, 3-[2-(6,7-Difluoro-1,2-dimethyl-1,3-benzodiazol-5-yl)ethynyl]-1-[(3S,5R)-5-(methoxymethyl)-1-(prop-2-enoyl)pyrrolidin-3-yl]-5-(methylamino) pyrazole-4-carboxamide]
7 | ≤ 100 | C=CC(=O)N1C[C@@H](n2nc(C#Cc3cc4nc(C)n(C)c4c(F)c3Cl)c(C(N)=O)c2NC)C[C@@H]1COC [Example 128, 3-[2-(6-Chloro-7-fluoro-1,2-dimethyl-1,3-benzodiazol-5-yl)ethynyl]-1-[(3S,5R)-5-(methoxymethyl)-1-(prop-2-enoyl)pyrrolidin-3-yl]-5-(methylamino)pyrazole-4-carboxamide]
8 | 100 to 1000 | C=C(F)C(=O)N1C[C@@H](n2nc(C#Cc3cc4ncn(CC)c4cc3Cl)c(C(N)=O)c2NC)C[C@@H]1COC [Example 129, 3-[2-(6-Chloro-1-ethyl-1,3-benzodiazol-5-yl)ethynyl]-1-[(3S,5R)-1-(2-fluoroprop-2-enoyl)-5-(methoxymethyl)pyrrolidin-3-yl]-5-(methylamino)pyrazole-4-carboxamide]
9 | ≤ 100 | C=CC(=O)N1C[C@@H](n2nc(C#Cc3cc4ncnn4cc3F)c(C(N)=O)c2NC)C[C@@H]1COC [Example 130, 3-(2-[6-Fluoro-[1,2,4]triazolo[1,5-a]pyridin-7-yl]-ethynyl)-1-[(3S,5R)-5-(methoxymethyl)-1-(prop-2-enoyl)pyrrolidin-3-yl]-5-(methylamino)pyrazole-4-carboxamide]
10 | ≤ 100 | C=CC(=O)N1C[C@@H](n2nc(C#Cc3c(Cl)cc4c(nc(C)n4C)c3F)c(C(N)=O)c2NC)C[C@@H]1COC [Example 133, 3-[2-(6-Chloro-4-fluoro-1,2-dimethyl-1,3-benzodiazol-5-yl)ethynyl]-1-[(3S,5R)-5-(methoxymethyl)-1-(prop-2-enoyl)pyrrolidin-3-yl]-5-(methylamino)pyrazole-4-carboxamide]
11 | ≤ 100 | C=CC(=O)N1CC[C@H](n2nc(C#Cc3cc4ncn(C5CC5)c4cc3F)c(C(N)=O)c2NC)C1 [Example 136, 3-[2-(1-Cyclopropyl-6-fluoro-1,3-benzodiazol-5-yl)ethynyl]-5-(methylamino)-1-[(3S)-1-(prop-2-enoyl)pyrrolidin-3-yl]pyrazole-4-carboxamide]
12 | ≤ 100 | CC#CC(=O)N1C[C@@H](n2nc(C#Cc3c(F)cc4c(ncn4CC)c3F)c(C(N)=O)c2NC)C[C@@H]1COC [Example 137, 1-[(3S,5R)-1-(but-2-ynoyl)-5-(methoxymethyl)pyrrolidin-3-yl]-3-[2-(1-ethyl-4,6-difluoro-1,3-benzodiazol-5-yl)ethynyl]-5-(methylamino)pyrazole-4-carboxamide]
13 | ≤ 100 | [2H]C([2H])([2H])OC[C@H]1C[C@H](n2nc(C#Cc3cc4ncn(CC)c4cc3Cl)c(C(N)=O)c2NC)CN1C(=O)C=C [Example 138, 1-((3S,5R)-1-acryloyl-5-((methoxy-d3)methyl)pyrrolidin-3-yl)-3-((6-chloro-1-ethyl-1H-benzo[d]imidazol-5-yl)ethynyl)-5-(methylamino)-1H-pyrazole-4-carboxamide]
14 | ≤ 100 | C=CC(=O)N1CC[C@H](n2nc(C#Cc3cc4ncn(C)c4cc3F)c(C(N)=O)c2NC)C1 [Example 139, 3-[2-(6-Fluoro-1-methyl-1,3-benzodiazol-5-yl)ethynyl]-5-(methylamino)-1-[(3S)-1-(prop-2-enoyl)pyrrolidin-3-yl]pyrazole-4-carboxamide]
15 | ≤ 100 | C=CC(=O)N1CC[C@H](n2nc(C#Cc3cc4ncn(CC)c4c(F)c3F)c(C(N)=O)c2NC)C1 [Example 140, 3-[2-(1-Ethyl-6,7-difluoro-1,3-benzodiazol-5-yl)ethynyl]-5-(methylamino)-1-[(3S)-1-(prop-2-enoyl)pyrrolidin-3-yl]pyrazole-4-carboxamide]
16 | ≤ 100 | C=CC(=O)N1CC[C@H](n2nc(C#Cc3cc4ncn(CC)c4c(F)c3Cl)c(C(N)=O)c2NC)C1 [Example 141, 3-[2-(6-Chloro-1-ethyl-7-fluoro-1,3-benzodiazol-5-yl)ethynyl]-5-(methylamino)-1-[(3S)-1-(prop-2-enoyl)pyrrolidin-3-yl]pyrazole-4-carboxamide]
17 | ≤ 100 | C=CC(=O)N1CC[C@H](n2nc(C#Cc3cc4ncn(C)c4c(F)c3Cl)c(C(N)=O)c2NC)C1 [Example 142, 3-[2-(6-Chloro-7-fluoro-1-methyl-1,3-benzodiazol-5-yl)ethynyl]-5-(methylamino)-1-[(3S)-1-(prop-2-enoyl)pyrrolidin-3-yl]pyrazole-4-carboxamide]
18 | ≤ 100 | C=CC(=O)N1CC[C@H](n2nc(C#Cc3cc4ncn(CC)c4cc3F)c(C(N)=O)c2NC)C1 [Example 143, 3-[2-(1-Ethyl-6-fluoro-1,3-benzodiazol-5-yl)ethynyl]-5-(methylamino)-1-[(3S)-1-(prop-2-enoyl)pyrrolidin-3-yl]pyrazole-4-carboxamide]
19 | ≤ 100 | C=CC(=O)N1CC[C@H](n2nc(C#Cc3cc4ncn(C)c4cc3Cl)c(C(N)=O)c2NC)C1 [Example 144, 3-[2-(6-Chloro-1-methyl-1,3-benzodiazol-5-yl)ethynyl]-5-(methylamino)-1-[(3S)-1-(prop-2-enoyl)pyrrolidin-3-yl]pyrazole-4-carboxamide]
20 | ≤ 100 | C=CC(=O)N1CC[C@H](n2nc(C#Cc3cc4ncn(C)c4c(F)c3F)c(C(N)=O)c2NC)C1 [Example 145, 3-[2-(6,7-Difluoro-1-methyl-1,3-benzodiazol-5-yl)ethynyl]-5-(methylamino)-1-[(3S)-1-(prop-2-enoyl)pyrrolidin-3-yl]pyrazole-4-carboxamide]
21 | ≤ 100 | C=CC(=O)N1C[C@@H](n2nc(C#Cc3cc4ncn(C5CC5)c4c(F)c3Cl)c(C(N)=O)c2NC)C[C@@H]1COC [Example 147, 3-[2-(6-Chloro-1-cyclopropyl-7-fluoro-1,3-benzodiazol-5-yl)ethynyl]-1-[(3S,5R)-5-(methoxymethyl)-1-(prop-2-enoyl)pyrrolidin-3-yl]-5-(methylamino)pyrazole-4-carboxamide]
22 | ≤ 100 | C=CC(=O)N1C[C@@H](n2nc(C#Cc3cc4ncn(C)c4cc3F)c(C(N)=O)c2NC)C[C@@H]1CF [Example 148, 3-[2-(6-Fluoro-1-methyl-1,3-benzodiazol-5-yl)ethynyl]-1-[(3S,5R)-5-(fluoromethyl)-1-(prop-2-enoyl)pyrrolidin-3-yl]-5-(methylamino)pyrazole-4-carboxamide]
23 | ≤ 100 | C=CC(=O)N1C[C@@H](n2nc(C#Cc3c(F)c(F)c4c(nc(C)n4C)c3F)c(C(N)=O)c2NC)C[C@@H]1COC [Example 149, 1-[(3S,5R)-5-(Methoxymethyl)-1-(prop-2-enoyl)pyrrolidin-3-yl]-5-(methylamino)-3-[2-(4,6,7-trifluoro-1,2-dimethyl-1,3-benzodiazol-5-yl)ethynyl]pyrazole-4-carboxamide]
24 | ≤ 100 | C=CC(=O)N1C[C@@H](n2nc(C#Cc3cc4nc(C)n(C5CC5)c4cc3F)c(C(N)=O)c2NC)C[C@@H]1COC [Example 150, 3-[2-(1-Cyclopropyl-6-fluoro-2-methyl-1,3-benzodiazol-5-yl)ethynyl]-1-[(3S,5R)-5-(methoxymethyl)-1-(prop-2-enoyl)pyrrolidin-3-yl]-5-(methylamino)pyrazole-4-carboxamide]
25 | ≤ 100 | C=CC(=O)N1C[C@@H](n2nc(C#Cc3cc4ncn(C5CC5)c4c(F)c3F)c(C(N)=O)c2NC)C[C@@H]1COC [Example 151, 3-[2-(1-Cyclopropy-6,7-difluoro-1,3-benzodiazol-5-yl)ethynyl]-1-[(3S,5R)-5-(methoxymethyl)-1-(prop-2-enoyl)pyrrolidin-3-yl]-5-(methylamino)pyrazole-4-carboxamide]

Row | Compound | IC50 [nM]
26 | C=CC(=O)N1C[C@@H](n2nc(C#Cc3cc4nccn4cc3F)c(C(N)=O)c2NC)C[C@@H]1COC [Example 132, 1-((3S,5R)-1-Acryloyl-5-(methoxymethyl)pyrrolidin-3-yl)-3-((6-fluoroimidazo[1,2-a]pyridin-7-yl)ethynyl)-5-(methylamino)-1H-pyrazole-4-carboxamide] | ≤ 100

— patent US11345681B1, “Inhibitors of fibroblast growth factor receptor kinases” (Kinnate Biopharma Inc., priority 2020, dated 2022)
